Source: patent publication US8828987B2, “Pyridine amide derivatives as EP4 receptor antagonists” (Rottapharm Biotech S.R.L., priority 2010, dated 2014)
Like-named read-outs stand apart in the source and are kept apart here.

Legend:
[1] = biological target: T1, human EP4 receptor (Homo sapiens, UniProt P35408); assay: cAMP assay (AlphaScreen) on human EP4 membrane of transfected cells, antagonism of PGE2; type: biochemical; settings: HEK293 hEP4 cell membrane stimulated with PGE2 3 nM; read-out: functional IC50
T1 construct: expressed in transfected cells; membrane fraction used
T1 sequence (P35408 whole entry): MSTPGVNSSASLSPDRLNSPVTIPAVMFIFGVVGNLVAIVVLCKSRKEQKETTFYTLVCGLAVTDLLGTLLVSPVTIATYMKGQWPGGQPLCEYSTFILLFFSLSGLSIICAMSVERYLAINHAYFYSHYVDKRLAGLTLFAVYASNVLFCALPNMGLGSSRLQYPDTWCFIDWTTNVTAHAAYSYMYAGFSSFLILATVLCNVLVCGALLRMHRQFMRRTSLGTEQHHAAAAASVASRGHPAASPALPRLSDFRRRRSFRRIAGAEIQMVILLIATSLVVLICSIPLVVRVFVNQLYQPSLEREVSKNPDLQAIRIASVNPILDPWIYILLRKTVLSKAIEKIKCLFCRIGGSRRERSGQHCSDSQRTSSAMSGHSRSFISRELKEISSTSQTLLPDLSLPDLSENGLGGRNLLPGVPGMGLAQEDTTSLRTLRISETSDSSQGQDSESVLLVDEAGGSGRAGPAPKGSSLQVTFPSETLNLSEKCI
From the text: (§1) Stable Expression of Human EP4 Receptors in the Human Embryonic Kidney (HEK293) Cell Line
(§2) The cDNA clone of human EP4 receptor (NM_000958.2) was obtained from Invitrogen™: Ultimate™ ORF Clone Collection—Clone ID IOH46525. The coding sequence was subcloned in expression vector pcDNA™6.2/V5-DEST by Gateway technology (Invitrogen™).
(§3) Human embryonic kidney cells (HEK-293) were stably transfected with expression vector for human EP4 receptor in according to the method described in FuGENE®6 Transfection Reagent's manual (Roche Applied Science®).
(§4) Preparation of Membrane Fraction:
(§5) The EP4 transfected cells were grown in Dulbecco's modified Eagle's medium containing 10% fetal bovine serum and 10 μg/ml Blasticidin S HCl (selection medium) at 37° C. in a humidified atmosphere of 5% CO2 in air.
(§6) For the membrane preparation, cells in flask were harvested by hypotonical/mechanical lysis with chilled (4° C.) TE buffer (5 mM TRIS, 5 mM etylenediamine tetra-acetic acid (EDTA), pH 7.4).
(§7) Cells were detached and lysed with 10 ml of hypotonic lysis buffer and by scraping. The cell lysate was vortexed for 30 sec and centrifuged at 40000×g at 4° C. for 22 min.
b) cAMP Assay on Human EP4 Membrane of Transfected Cells.
The assay is based on the competition between endogenous cAMP and exogenously added biotinylated cAMP. The capture of cAMP is achieved by using a specific antibody conjugated to […] beads.
Cell membranes prepared as described above, were resuspended in 1 ml stimulation buffer (HBSS 1×+BSA 0.1%+IBMX 0.5 mM+HEPES 5 mM+MgCl2 10 mM+GTP 1 nM+GDP 10 μM+ATP 100 μM−pH 7.4). Cell membranes were dispensed into white 384-well microplates at final concentration of 1 μg/well and used for the determination of cAMP with the alphascreen cAMP functional assay (EnVision—PerkinElmer). Cell membrane/anti-cAMP Acceptor beads mix (5 μl) and a mixture of analysed compounds (dissolved in 100% DMSO to a final maximal concentration of 0.01% DMSO)/PGE2 (5 μl) were incubated at room temperature (22-23° C.) for 30 min in the dark. The Biotinylated-cAMP and donor beads (15 μl) were dispensed into each well to start the competition reaction. After 1 h incubation RT (22-23° C.) in the dark the plate was read using EnVision platform to determine the cAMP level (excitation: 680 nm; emission: 520,620 nm).
cAMP standard curve (concentration range from 1×10-6 to 1×10-11 M in. log intervals) with a negative control (no cAMP) a positive control:forskolin 10 μM
Antagonism studies were performed stimulating HEK293 cell membrane with PGE2 3 nM. The AlphaScreen signal is plotted as a function of log concentration of cAMP and functional IC50 is determined. IC50 value is calculated by linear regression.
Some compounds were tested according to method of example 83b.

[2] = Pharmacokinetics in male Han Wistar rats, intravenous and oral; type: in vivo; settings: rat, 2.0 mg/kg; for half-life: read-out: t½* (converted)
Experimental: Determination of PK of the Invention Compounds
The pharmacokinetics of compounds E10, E16, E34, E38, E51, were studied in male Han Wistar rats. The rats were treated intravenously and orally (n=3 for each dose route) with a compounds formulated as solutions. The rats were fitted with a jugular cannula for serial sampling. A full profile was acquired for each rat. Plasma extracts were quantitatively analyzed using a specific and sensitive LC-MS/MS bioanalytical method. Inter-individual variations between the three rats in each group were limited (CV for pharmacokinetic parameters was below 50%).

[3] = biological target: T1, human EP4 receptor; assay: [3H]-Prostaglandin E2 membrane binding assay (human EP4/HEK293 transfectant membranes); settings: [3H]-PGE2 1 nM, hEP4/HEK293 membranes; Ki by Cheng-Prusoff; read-out: Binding pKi (converted)
From the text: as §1, §2, §3, §4, §5, §6, §7
a) Membrane Binding Assay[3H]-Prostaglandin E2
The membrane pellet was resuspended in the same buffer (5 mM TRIS, 5 mM ethylenediamine tetra-acetic acid (EDTA), pH 7.4), and protein concentration was determined by Bradford method (Bio-Bad® assay).
This membrane preparation was stored at −80° C. freezer until use for binding assay.
([^3H]-PGE2) membranes binding assays toward hEP4 receptors (human EP4/HEK293 transfectant, see above) and hEP2 receptors (human EP2/HEK293 transfectant, purchased from PerkinElmer Inc) were performed in 10 mM MES-KOH buffer pH6, containing 10 mM MgCl2 and 1 mM CaCl2 for EP4 binding assay or 50 mM Tris-Cl, BSA 0.5% for EP2 binding assay (according to supplier indication).
Ten microgram of protein from membrane fractions were incubated in a total volume of 0.1 ml (EP4) or 0.2 ml (EP2) with 1 nM (EP4) or 3 nM (EP2) [^3H]-PGE2 (PerkinElmer Inc, 171 Ci/mmol). In both assays to determine the total binding or non specific binding, 1% DMSO or 1 μM prostaglandin E2 (EP4) or 100 μM (EP2) were added to reaction mixtures, respectively. Incubation was conducted in a polypropylene 96 multiwell for 90 min (EP4) or 60 min (EP2) at room temperature prior to separation of the bound and free radioligand by vacuum manifold rapid filtration on glass fiber filters (Unifilter GFB96, PerkinElmer Inc) pre-soaked in 0.3% polyethyleneimine. Filters were washed with ice cold buffer pH 7.4 (50 mM HEPES, NaCl 500 mM, BSA 0.1% for EP4 binding assay or 50 mM Tris-Cl for EP2 binding assays) and the residual [^3H]-PGE2 binding determined by solid scintillation counter (TopCount, PerkinElmer Inc).
The affinity (Ki) of each compound was calculated according to the Cheng-Prousoff equation: Ki=IC50/(1+([C]/Kd)). Results were expressed as pKi (−log 10 Ki (M)
Compounds of example 1 to 82 were tested according to method of example 83a in a final concentration range from 1 nM to 1 μM.

IC50 [1] [nM] | Ki [3] [nM] | SMILES | further results
46 | 15.8 | O=C(O)c1ccc(C2(NC(=O)c3cc(Cl)cnc3N3CC(Oc4ccccc4)C3)CC2)cc1 [E 10, 4-(1-(5-chloro-2-(3-phenoxyazetidin-1-yl)nicotinamido)cyclopropyl)benzoic acid] | AUC(0-inf) ([2]; male, Han Wistar, plasma, IV): 3150 ng·h/mL; AUC(0-t) ([2]; male, Han Wistar, plasma, IV): 3090 ng·h/mL; clearance ([2]; male, Han Wistar, plasma, IV, read-out: CLp* (converted)): 2.68 mL/min; Vd ([2]; male, Han Wistar, plasma, IV, read-out: Vss*): 0.307 L; half-life ([2]; male, Han Wistar, plasma, IV): 3.96 h; AUC(0-inf) ([2]; male, Han Wistar, plasma, PO): 1820 ng·h/mL; AUC(0-t) ([2]; male, Han Wistar, plasma, PO): 1720 ng·h/mL; Cmax ([2]; male, Han Wistar, plasma, PO): 923 ng/mL; Tmax ([2]; male, Han Wistar, plasma, PO): 0.25 h; half-life ([2]; male, Han Wistar, plasma, PO): 4.85 h; bioavailability ([2]; male, Han Wistar, plasma, po, 2 mg/kg, PO, read-out: F %): 56%; Tlast ([2]; IV): 24 h; Tlast ([2]; PO): 24 h
35 | 3.16 | O=C(O)c1ccc(C2(NC(=O)c3cc(C(F)(F)F)cnc3N3CC(Oc4ccc(F)c(C(F)(F)F)c4)C3)CC2)cc1 [E 42, 4-(1-(2-(3-(4-fluoro-3-(trifluoromethyl)phenoxy)azetidin-1-yl)-5-(trifluoromethyl)nicotinamido)cyclopropyl)benzoic acid] | –
38 | 3.16 | O=C(O)c1ccc(C2(NC(=O)c3cc(C(F)(F)F)cnc3N3CC(Oc4cccc(OC(F)(F)F)c4)C3)CC2)cc1 [E 43, 4-(1-(2-(3-(3-(trifluoromethoxy)phenoxy)azetidin-1-yl)-5-(trifluoromethyl)nicotinamido)cyclopropyl)benzoic acid] | –
17.5 | 10 | O=C(O)c1ccc(C2(NC(=O)c3cc(C(F)(F)F)cnc3N3CC(Oc4ccc(F)cc4F)C3)CC2)cc1 [E 44, 4-(1-(2-(3-(2,4-difluorophenoxy)azetidin-1-yl)-5-(trifluoromethyl)nicotinamido)cyclopropyl)benzoic acid] | –
10 | 3.16 | O=C(O)c1ccc(C2(NC(=O)c3cc(C(F)(F)F)cnc3N3CC(Oc4ccc(F)c(F)c4)C3)CC2)cc1 [E 45, 4-(1-(2-(3-(3,4-difluorophenoxy)azetidin-1-yl)-5-(trifluoromethyl)nicotinamido)cyclopropyl)benzoic acid] | –
228 | 63.1 | O=C(O)c1ccc(C2(NC(=O)c3cc(C(F)(F)F)cnc3N3CC(Oc4cccc(C(F)(F)F)n4)C3)CC2)cc1 [E 47, 4-(1-(5-(trifluoromethyl)-2-(3-((6-(trifluoromethyl)pyridin-2-yl)oxy)azetidin-1-yl)nicotinamido)cyclopropyl)benzoic acid] | –
69 | 25.1 | O=C(O)c1ccc(C2(NC(=O)c3cc(C(F)(F)F)cnc3N3CC(Nc4cccc(F)c4)C3)CC2)cc1 [E 49, 4-(1-(2-(3-((3-fluorophenyl)amino)azetidin-1-yl)-5-(trifluoromethyl)nicotinamido)cyclopropyl)benzoic acid] | –
23 | 12.6 | O=C(O)c1ccc(C2(NC(=O)c3cc(C(F)(F)F)cnc3N3CC(Nc4ccc(F)cc4)C3)CC2)cc1 [E 50, 4-(1-(2-(3-((4-fluorophenyl)amino)azetidin-1-yl)-5-(trifluoromethyl)nicotinamido)cyclopropyl)benzoic acid] | –
74 | 20 | O=C(O)c1ccc(C2(NC(=O)c3cc(C(F)(F)F)cnc3N3CC(Nc4ccc(F)cc4F)C3)CC2)cc1 [E 52, 4-(1-(2-(3-((2,4-difluorophenyl)amino)azetidin-1-yl)-5-(trifluoromethyl)nicotinamido)cyclopropyl)benzoic acid] | –
80 | 31.6 | O=C(O)c1ccc(C2(NC(=O)c3cc(F)cnc3N3CC(Oc4cccc(F)c4)C3)CC2)cc1 [E 53, 4-(1-(5-fluoro-2-(3-(3-fluorophenoxy)azetidin-1-yl)nicotinamido)cyclopropyl)benzoic acid] | –
75 | 25.1 | O=C(O)c1ccc(C2(NC(=O)c3cc(F)cnc3N3CC(Oc4cccc(Cl)c4)C3)CC2)cc1 [E 54, 4-(1-(5-fluoro-2-(3-(3-chlorophenoxy)azetidin-1-yl)nicotinamido)cyclopropyl)benzoic acid] | –
126 | 31.6 | O=C(O)c1ccc(C2(NC(=O)c3cc(F)cnc3N3CC(Oc4cccc(OC(F)(F)F)c4)C3)CC2)cc1 [E 55, 4-(1-(5-fluoro-2-(3-(3-(trifluoromethoxy)phenoxy)azetidin-1-yl)nicotinamido)cyclopropyl)benzoic acid] | –
46 | 10 | Cc1cc(F)ccc1NC1CN(c2ncc(F)cc2C(=O)NC2(c3ccc(C(=O)O)cc3)CC2)C1 [E 56, 4-(1-(5-fluoro-2-(3-((4-fluoro-2-methylphenyl)amino)azetidin-1-yl)nicotinamido)cyclopropyl)benzoic acid] | –
24 | 31.6 | O=C(O)c1ccc(C2(NC(=O)c3cc(Cl)cnc3N3CCC(COc4cccc(F)c4)C3)CC2)cc1 (centres unmarked) [E 76, 4-(1-(5-chloro-2-(3-((3-fluorophenoxy)methyl)pyrrolidin-1-yl)nicotinamido)cyclopropyl)benzoic acid] | –
90 | 10 | O=C(O)c1ccc(C2(NC(=O)c3cc(Cl)cnc3N3CCC[C@@H]3COc3cccc(F)c3)CC2)cc1 [E 77, 4 (R)-4-(1-(5-chloro-2-(2-((3-fluorophenoxy)methyl)pyrrolidin-1-yl)nicotinamido)cyclopropyl)benzoic acid] | –
99 | 39.8 | O=C(O)c1ccc(C2(NC(=O)c3cc(Cl)cnc3N3CC[C@H](Oc4cccc(F)c4)C3)CC2)cc1 [E 80, (S)-4-(1-(5-chloro-2-(3-(3-fluorophenoxy)pyrrolidin-1-yl)nicotinamido)cyclopropyl)benzoic acid] | –
27 | 5.01 | O=C(NC1(c2ccc(-c3nnn[nH]3)cc2)CC1)c1cc(Cl)cnc1N1CC(Oc2cccc(F)c2)C1 [E 82, N-(1-(4-(1H-tetrazol-5-yl)phenyl)cyclopropyl)-5-chloro-2-(3-(3-fluorophenoxy)azetidin-1-yl)nicotinamide] | –
